We go through four sequences from patent publication US20070128217A1 (priority 2003, published 2007).

In assay [1] the test system is antibodies in sera from SARS patients (sera 1a, 1b, 2, 6, 37, 62, London, SARS-yellow, SARS-green). Format: binding, human. Further details: Binding of serum 6 to linear peptides of protein X1 of SARS-CoV Urbani / Binding of serum 37 to linear peptides of protein X1 of SARS-CoV Urbani / Binding of serum 6 to looped/cyclic peptide (PEPSCAN-ELISA) / Binding of serum 37 to looped/cyclic peptide (PEPSCAN-ELISA) / Binding of serum 37 to looped/cyclic peptides of protein X1 of SARS-CoV Urbani / Binding of serum 6 to linear peptides of protein X2 / Binding of serum 37 to linear peptides of protein X2 / Binding of serum 37 to looped/cyclic peptides of protein X2 of SARS-CoV Urbani / Binding of serum 6 to linear peptides of protein M of SARS-CoV Urbani / Binding of serum 37 to linear peptides of protein M of SARS-CoV Urbani / Binding of serum 6 to looped/cyclic peptides of protein M of SARS-CoV Urbani / Binding of serum 37 to looped/cyclic peptides of protein M of SARS-CoV Urbani / Binding of serum 6 to linear peptides of protein X3 of SARS-CoV Urbani / Binding of serum 37 to linear peptides of protein X3 of SARS-CoV Urbani / Binding of serum 37 to looped/cyclic peptides of protein X3 of SARS-CoV Urbani / Binding of serum 6 to linear peptides of protein X4 of SARS-CoV Urbani / Binding of serum 37 to linear peptides of protein X4 of SARS-CoV Urbani / Binding of serum 37 to looped/cyclic peptides of protein X4 of SARS-CoV Urbani / Binding of serum 6 to linear peptides of protein X5 of SARS-CoV Urbani / Binding of serum 37 to linear peptides of protein X5 of SARS-CoV Urbani / Binding of serum 37 to looped/cyclic peptides of protein X5 of SARS-CoV Urbani / Binding of serum 6 to linear peptides of protein N of SARS-CoV Urbani / Binding of serum 37 to linear peptides of protein N of SARS-CoV Urbani / Binding of serum 6 to linear peptide (PEPSCAN-ELISA) / Binding of serum 1a to looped/cyclic peptides of protein N of SARS-CoV Urbani / Binding of serum 1b to looped/cyclic peptides of protein N of SARS-CoV Urbani / Binding of serum 2 to looped/cyclic peptides of protein N of SARS-CoV Urbani / Binding of serum 6 to looped/cyclic peptides of protein N of SARS-CoV Urbani / Binding of serum 37 to looped/cyclic peptides of protein N of SARS-CoV Urbani / Binding of serum 62 to looped/cyclic peptides of protein N of SARS-CoV Urbani / Binding of serum London to looped/cyclic peptides of protein N of SARS-CoV Urbani / Binding of serum SARS-green to looped/cyclic peptides of protein N of SARS-CoV Urbani: unit not given here.

The subject of assay [2] is control sera (pooled serum of ten healthy LUMC hospital workers; commercial negative donor pooled serum from the Dutch bloodbank). In kind it is binding, human. Further details: Binding of Control serum LUMC to linear peptides / Binding of Control serum Blood-bank to linear peptides / Binding of Control serum LUMC to looped peptides / Binding of Control Serum Blood-Bank to Looped peptides / Binding of Control serum LUMC to linear peptides of the protein M of SARS-CoV Urbani / Binding of Control serum Blood-bank to linear peptides of the protein M of SARS-CoV Urbani / Binding of Control serum LUMC to looped peptides of the protein M of SARS-CoV Urbani / Binding of Control Serum Blood-Bank to Looped peptides of the protein M of SARS-CoV Urbani: unit not given here.

Assay [3] relates to rabbit serum obtained by immunizing a rabbit with the SARS-CoV strain Frankfurt 1. In kind it is binding. More on the design: Binding of a rabbit serum to linear peptides / Binding of a rabbit serum to looped peptides / Rabbit serum linear peptides / Rabbit serum looped peptides / Binding of a rabbit serum to linear peptides of protein N of SARS-CoV Urbani (Rabbit serum linear peptides) / Binding of a rabbit serum to looped/cyclic peptides of protein N of SARS-CoV Urbani (Rabbit serum looped peptides): unit not given here.

For the sequence QRVGTDSGFAAYNRY, in assay [1], the “Binding of serum 1a to linear peptides of protein M of SARS-CoV Urbani” value is listed as 0.7, the “Binding of serum 1a to looped/cyclic peptides of protein M of SARS-CoV Urbani” value stood at 0.6, the “Binding of serum 1b to linear peptides of protein M of SARS-CoV Urbani” value came to 0.5 and the “Binding of serum 1b to looped/cyclic peptides of protein M of SARS-CoV Urbani” value stood at 0.5. In assay [1], the “Binding of serum 2 to linear peptides of protein M of SARS-CoV Urbani” value is on record as 0.5, the “Binding of serum 2 to looped/cyclic peptides of protein M of SARS-CoV Urbani” value turned out to be 0.5, the “Binding of serum 6 to linear peptides of protein M of SARS-CoV Urbani” value turned out to be 0.3 and the “Binding of serum 6 to looped/cyclic peptides of protein M of SARS-CoV Urbani” value was 0.6. Moreover, in assay [1], the “Binding of serum 37 to linear peptides of protein M of SARS-CoV Urbani” value amounted to 0.7, the “Binding of serum 37 to looped/cyclic peptides of protein M of SARS-CoV Urbani” value came to 0.6, the “Binding of serum 62 to linear peptides of protein M of SARS-CoV Urbani” value came out at 0.7 and the “Binding of serum 62 to looped/cyclic peptides of protein M of SARS-CoV Urbani” value amounted to 0.5. In addition, in assay [1], the “Binding of serum London to linear peptides of protein M of SARS-CoV Urbani” value was found to be 0.3, the “Binding of serum London to looped/cyclic peptides of protein M of SARS-CoV Urbani” value turned out to be 0.2, the “Binding of serum SARS-green to linear peptides of protein M of SARS-CoV Urbani” value is given as 0.3 and the “Binding of serum SARS-green to looped/cyclic peptides of protein M of SARS-CoV Urbani” value is 0.3. For the same sequence, in assay [1], the “Binding of serum SARS-yellow to linear peptides of protein M of SARS-CoV Urbani” value came to 0.1 and the “Binding of serum SARS-yellow to looped/cyclic peptides of protein M of SARS-CoV Urbani” value was determined as 0.6. In addition, in assay [2], the “Binding of Control Serum Blood-Bank to Looped peptides of the protein M of SARS-CoV Urbani” value came to 0.7, the “Binding of Control serum Blood-bank to linear peptides of the protein M of SARS-CoV Urbani” value came out at 0.6, the “Binding of Control serum LUMC to linear peptides of the protein M of SARS-CoV Urbani” value is reported as 0.3 and the “Binding of Control serum LUMC to looped peptides of the protein M of SARS-CoV Urbani” value amounted to 0.8. Besides, in assay [3], the “Rabbit serum linear peptides” value amounted to 0.4 and the “Rabbit serum looped peptides” value was 0.0.

Regarding QSTALQELLIQQWIQ, in assay [1], the “Binding of serum 1a to linear peptides of protein X2” value is 0.6, the “Binding of serum 1a to looped/cyclic peptides of protein X2 of SARS-CoV Urbani” value is reported as 0.6, the “Binding of serum 1b to linear peptides of protein X2” value is on record as 0.4 and the “Binding of serum 1b to looped/cyclic peptides of protein X2 of SARS-CoV Urbani” value was found to be 0.5. Moreover, in assay [1], the “Binding of serum 2 to linear peptides of protein X2” value is on record as 0.4, the “Binding of serum 2 to looped/cyclic peptides of protein X2 of SARS-CoV Urbani” value is 0.4, the “Binding of serum 6 to linear peptides of protein X2” value is on record as 0.4 and the “Binding of serum 6 to looped/cyclic peptides of protein X2 of SARS-CoV Urbani” value is recorded as 0.2. In assay [1], the “Binding of serum 37 to linear peptides of protein X2” value is on record as 0.5, the “Binding of serum 37 to looped/cyclic peptides of protein X2 of SARS-CoV Urbani” value is listed as 0.4, the “Binding of serum 62 to linear peptides of protein X2” value was 0.5 and the “Binding of serum 62 to looped/cyclic peptides of protein X2 of SARS-CoV Urbani” value is reported as 0.6. In assay [1], the “Binding of serum London to linear peptides of protein X2” value was determined as 0.5, the “Binding of serum London to looped/cyclic peptides of protein X2 of SARS-CoV Urbani” value came out at 0.2, the “Binding of serum SARS-green to linear peptides of protein X2” value was determined as 0.6 and the “Binding of serum SARS-green to looped/cyclic peptides of protein X2 of SARS-CoV Urbani” value is listed as 0.4. Further, in assay [1], the “Binding of serum SARS-yellow to linear peptides of protein X2” value was 0.4 and the “Binding of serum SARS-yellow to looped/cyclic peptides of protein X2 of SARS-CoV Urbani” value is 0.4. Also, in assay [2], the “Binding of Control Serum Blood-Bank to Looped peptides” value was 0.6, the “Binding of Control serum Blood-bank to linear peptides” value is given as 0.6, the “Binding of Control serum LUMC to linear peptides” value is recorded as 0.4 and the “Binding of Control serum LUMC to looped peptides” value worked out at 0.6. Further, in assay [3], the “Binding of a rabbit serum to linear peptides” value is 0.2 and the “Binding of a rabbit serum to looped peptides” value is listed as 0.4.

For QTAAFRDVLVVLNKR, in assay [1], the “Binding of serum 1a to linear peptides of protein X5 of SARS-CoV Urbani” value amounted to 0.5, the “Binding of serum 1a to looped/cyclic peptides of protein X5 of SARS-CoV Urbani” value was determined as 0.6, the “Binding of serum 1b to linear peptides of protein X5 of SARS-CoV Urbani” value came to 0.5 and the “Binding of serum 1b to looped/cyclic peptides of protein X5 of SARS-CoV Urbani” value came to 0.5. In assay [1], the “Binding of serum 2 to linear peptides of protein X5 of SARS-CoV Urbani” value worked out at 0.6, the “Binding of serum 2 to looped/cyclic peptides of protein X5 of SARS-CoV Urbani” value is 0.6, the “Binding of serum 6 to linear peptides of protein X5 of SARS-CoV Urbani” value is 0.6 and the “Binding of serum 6 to looped/cyclic peptides of protein X5 of SARS-CoV Urbani” value stood at 0.8. Besides, in assay [1], the “Binding of serum 37 to linear peptides of protein X5 of SARS-CoV Urbani” value worked out at 0.5, the “Binding of serum 37 to looped/cyclic peptides of protein X5 of SARS-CoV Urbani” value is recorded as 0.6, the “Binding of serum 62 to linear peptides of protein X5 of SARS-CoV Urbani” value is 0.4 and the “Binding of serum 62 to looped/cyclic peptides of protein X5 of SARS-CoV Urbani” value is recorded as 0.6. Also, in assay [1], the “Binding of serum London to linear peptides of protein X5 of SARS-CoV Urbani” value was found to be 0.5, the “Binding of serum London to looped/cyclic peptides of protein X5 of SARS-CoV Urbani” value came to 0.5, the “Binding of serum SARS-green to linear peptides of protein X5 of SARS-CoV Urbani” value is reported as 0.2 and the “Binding of serum SARS-green to looped/cyclic peptides of protein X5 of SARS-CoV Urbani” value turned out to be 0.3. Moreover, in assay [1], the “Binding of serum SARS-yellow to linear peptides of protein X5 of SARS-CoV Urbani” value was 0.6 and the “Binding of serum SARS-yellow to looped/cyclic peptides of protein X5 of SARS-CoV Urbani” value came to 0.4. Besides, in assay [2], the “Binding of Control Serum Blood-Bank to Looped peptides” value amounted to 0.7, the “Binding of Control serum Blood-bank to linear peptides” value is reported as 0.6, the “Binding of Control serum LUMC to linear peptides” value was 0.8 and the “Binding of Control serum LUMC to looped peptides” value was 0.5. In addition, in assay [3], the “Rabbit serum linear peptides” value is on record as 0.4 and the “Rabbit serum looped peptides” value is listed as 0.5.

Regarding QTCTPNVTINCQDPA, in assay [1], the “Binding of serum 1a to linear peptides of protein X5 of SARS-CoV Urbani” value turned out to be 0.8, the “Binding of serum 1a to looped/cyclic peptides of protein X5 of SARS-CoV Urbani” value amounted to 0.4, the “Binding of serum 1b to linear peptides of protein X5 of SARS-CoV Urbani” value stood at 0.7 and the “Binding of serum 1b to looped/cyclic peptides of protein X5 of SARS-CoV Urbani” value worked out at 0.1. Further, in assay [1], the “Binding of serum 2 to linear peptides of protein X5 of SARS-CoV Urbani” value is listed as 0.6, the “Binding of serum 2 to looped/cyclic peptides of protein X5 of SARS-CoV Urbani” value is 0.3, the “Binding of serum 6 to linear peptides of protein X5 of SARS-CoV Urbani” value is listed as 0.8 and the “Binding of serum 6 to looped/cyclic peptides of protein X5 of SARS-CoV Urbani” value is given as 0.2. In assay [1], the “Binding of serum 37 to linear peptides of protein X5 of SARS-CoV Urbani” value is listed as 0.8, the “Binding of serum 37 to looped/cyclic peptides of protein X5 of SARS-CoV Urbani” value is 0.3, the “Binding of serum 62 to linear peptides of protein X5 of SARS-CoV Urbani” value is 0.8 and the “Binding of serum 62 to looped/cyclic peptides of protein X5 of SARS-CoV Urbani” value was determined as 0.2. Besides, in assay [1], the “Binding of serum London to linear peptides of protein X5 of SARS-CoV Urbani” value stood at 0.9, the “Binding of serum London to looped/cyclic peptides of protein X5 of SARS-CoV Urbani” value was 0.1, the “Binding of serum SARS-green to linear peptides of protein X5 of SARS-CoV Urbani” value is 0.8 and the “Binding of serum SARS-green to looped/cyclic peptides of protein X5 of SARS-CoV Urbani” value was 0.0. Further, in assay [1], the “Binding of serum SARS-yellow to linear peptides of protein X5 of SARS-CoV Urbani” value stood at 0.1 and the “Binding of serum SARS-yellow to looped/cyclic peptides of protein X5 of SARS-CoV Urbani” value is recorded as 0.1. In addition, in assay [2], the “Binding of Control Serum Blood-Bank to Looped peptides” value worked out at 0.4, the “Binding of Control serum Blood-bank to linear peptides” value was 0.6, the “Binding of Control serum LUMC to linear peptides” value is 0.4 and the “Binding of Control serum LUMC to looped peptides” value is given as 0.3. Further, in assay [3], the “Rabbit serum linear peptides” value is 0.3 and the “Rabbit serum looped peptides” value stood at 0.0.
